# What was measured:
# Sestrin1 = experiment: [3H]-leucine binding to FLAG-Sestrin1 immunoprecipitated from HEK-293T cells; design: species or system human; conditions: FLAG-tagged protein from HEK-293T
# Procedure: (§1) Four million HEK-293T cells were plated in a 15 cm plate four days prior to the experiment. Each plate yielded the protein for one sample. Forty-eight hours after plating, the cells were transfected via the polyethylenimine method (O. Boussif et al., PNAS (USA), 92:7297-7301 (1995)) with the pRK5-based cDNA expression plasmids indicated in the figures in the following amounts: 5 μgFLAG-Sestrin2; 12 μg of the negative control Rap2A; 5 μg WDR24; 2 μg WDR24 with 4 μg each of HA-Seh1L, HA-Sec13, HA-Mios, and HA-WDR59; 12 […] (CG11299-PD); 12 μgFLAG-Sestrin1.1; 12 μg FLAG-Sestrin1.2; 12 μg FLAG-Sestrin3; 12 μg FLAG-Sestrin2 mutants (L261A, E451A, S190A) and up to 20 μg total DNA with empty-PRK5. Forty-eight hours after transfection cells were lysed as described in Example 1. […]
# (§2) For the binding assays, two tubes at a time were washed as previously indicated for immunoprecipitations. […] With a cut tip, each sample was mixed well and three 10 μl aliquots were separately quantified using a TriCarb® scintillation counter (PerkinElmer). This process was repeated in pairs for each sample, to ensure similar incubation and wash times for all samples analyzed across different experiments.
# Sestrin2-GATOR2 complex = target: T1, Sestrin2-GATOR2 complex (Homo sapiens, UniProt P58004); experiment: Amino acids added to ice-cold detergent lysates of amino acid-starved HEK-293T cells, FLAG immunoprecipitation; type: binding; conditions: ice-cold detergent lysates of HEK-293T cells starved for all amino acids
# T1 construct: To isolate the FLAG-WDR24/endogenous-Sestrin2 complex; endogenous in cells; host or cells: HEK-293T cells stably expressing FLAG-WDR24; Sestrin2 and the other GATOR2 subunits are endogenous
# T1 sequence (P58004 1-480): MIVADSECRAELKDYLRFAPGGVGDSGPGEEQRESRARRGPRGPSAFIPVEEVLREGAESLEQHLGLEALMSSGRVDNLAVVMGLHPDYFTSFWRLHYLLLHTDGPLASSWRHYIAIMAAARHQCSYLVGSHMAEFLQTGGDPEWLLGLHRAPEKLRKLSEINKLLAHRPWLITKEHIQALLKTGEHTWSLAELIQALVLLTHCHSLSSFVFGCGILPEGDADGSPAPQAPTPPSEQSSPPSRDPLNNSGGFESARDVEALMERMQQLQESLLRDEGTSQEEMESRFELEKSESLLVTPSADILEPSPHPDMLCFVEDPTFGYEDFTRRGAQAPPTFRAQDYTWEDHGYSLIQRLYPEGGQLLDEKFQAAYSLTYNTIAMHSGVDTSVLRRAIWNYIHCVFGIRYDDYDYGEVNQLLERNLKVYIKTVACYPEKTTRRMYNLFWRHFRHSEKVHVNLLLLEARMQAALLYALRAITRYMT
# Procedure: HEK-293T cells stably expressing the FLAG-tagged GATOR2 component WDR24 were starved of all amino acids for 50 minutes. Individual amino acids were added pre-lysis to the cell culture media or post-lysis to cell lysates prior to FLAG immunoprecipitation.
# We next tested if leucine acts directly on the Sestrin2-GATOR2 complex.
# Sestrin3 = target: T2, Sestrin3 (Homo sapiens, UniProt P58005); experiment: [3H]-leucine binding to FLAG-Sestrin3 immunoprecipitated from HEK-293T cells; conditions: FLAG-tagged protein from HEK-293T
# T2 construct: expressed in transfected cells; host or cells: HEK-293T, transient transfection of a pRK5-based cDNA plasmid, anti-FLAG immunoprecipitation
# T2 sequence (P58005 1-492): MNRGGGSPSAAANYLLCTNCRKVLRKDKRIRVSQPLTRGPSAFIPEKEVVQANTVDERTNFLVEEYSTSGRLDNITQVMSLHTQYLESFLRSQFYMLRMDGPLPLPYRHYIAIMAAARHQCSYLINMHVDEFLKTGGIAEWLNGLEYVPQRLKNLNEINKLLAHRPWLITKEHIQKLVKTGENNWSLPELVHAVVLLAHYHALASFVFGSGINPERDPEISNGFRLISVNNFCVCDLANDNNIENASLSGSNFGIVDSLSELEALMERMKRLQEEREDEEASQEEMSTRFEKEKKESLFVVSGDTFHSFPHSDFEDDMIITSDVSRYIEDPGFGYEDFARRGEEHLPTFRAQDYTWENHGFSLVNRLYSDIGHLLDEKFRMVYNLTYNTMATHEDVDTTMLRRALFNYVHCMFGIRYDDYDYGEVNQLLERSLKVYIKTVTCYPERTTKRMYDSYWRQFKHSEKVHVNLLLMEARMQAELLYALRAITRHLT
# Procedure: as §1, §2
structure (smiles),measurement,setting,value
CC(C)C[C@H](N)C(=O)O [leucine],binding of leucine to Sestrin1,Sestrin1,to a similar extent as Sestrin2
same,effect on Sestrin2-GATOR2 interaction when added to cell lysates,Sestrin2-GATOR2 complex,abrogated the interaction
same,binding of leucine to Sestrin3,Sestrin3,only slightly above background

# — patent US10168338B2, “Methods of identifying modulators of sestrin-gator-2 interaction for modulating mTORC1 activity” (Whitehead Institute for Biomedical Research, priority 2014, dated 2019)
